Assay results published in PMC3934894, “Inhibition of Human and Yeast 20S Proteasome by Analogues of Trypsin Inhibitor SFTI-1” (PLoS ONE, 2014).
Where “and” joins values, the source holds several entries; their conditions need not be identical. Equal values may be shown once. Read-outs that look alike come from different tables or passages of the source. Peptide text beside a SMILES is read from it. * marks the point of attachment. Cbz = O=C(OCc1ccccc1)*

Columns and labels:
[1] = target: human 20S proteasome, caspase-like (C-L) activity (Homo sapiens, UniProt P28072); test: C-L activity of SDS-activated human 20S proteasome (Z-LLE-AMC); details: for IC50: C-like Human 20S IC50, SDS-activated human 20S, pH 8.1, 37°C, Z-LLE-AMC 79 µM
Protocol: (§1) An assay buffer was composed of 50 mM Tris-HCl (pH 8.1) and 0.02% (w/v) SDS (exceptionally, T-L activity was measured in Tris buffer without SDS, that may trigger precipitation of substrates containing the guanidino group [21]). […] The SFTI-1 analogues were incubated with 20S proteasome in assay buffer at 37°C for 30 min. Reactions were performed in 96-well black BRAND plates (Germany). The final volume of the solution in each well was 200 µL. […] Proteasomal subsite activities were determined by monitoring the AMC liberation over time with a Fluorostar Omega (BMG Labtech, Germany) using excitation and emission wavelengths of 380 nm and 450 nm, respectively. […] Association constants Ka were measured as described previously [14] and calculated using a two-parameter fit model (using the GraFit software package).

[2] = system: rat and porcine 20S proteasomes, ChT-L; design: method as in PMID 19054805; details: cited from earlier work
[3] = target: human 20S proteasome, trypsin-like (T-L) activity (Homo sapiens, UniProt Q99436); test: T-L activity of latent human 20S proteasome (Z-LLR-AMC, no SDS); details: for IC50: T-like Human 20S IC50, latent human 20S, Tris buffer without SDS, pH 8.1, 37°C, Z-LLR-AMC 52 µM
Protocol: (§2) The peptidase activities of 20S proteasome were assayed using fluorogenic tri- and tetra-peptides coupled at their C-termini with 7-amino-4-methylcoumarin group (AMC). The initial concentration of purified yeast 20S proteasome [E0] […] An assay buffer was composed of 50 mM Tris-HCl (pH 8.1) and 0.02% (w/v) SDS (exceptionally, T-L activity was measured in Tris buffer without SDS, that may trigger precipitation of substrates containing the guanidino group [21]). […] The SFTI-1 analogues were incubated with 20S proteasome in assay buffer at 37°C for 30 min. Reactions were performed in 96-well black BRAND plates (Germany). The final volume of the solution in each well was 200 µL. […] Proteasomal subsite activities were determined by monitoring the AMC liberation over time with a Fluorostar Omega (BMG Labtech, Germany) using excitation and emission wavelengths of 380 nm and 450 nm, respectively.

[4] = system: rat and porcine 20S proteasomes, C-L site; design: method as in PMID 19054805; details: cited from earlier work
porcine 20S C–L activity = system: porcine 20S C–L activity; design: method as in PMID 19054805; details: cited from earlier work
[5] = system: rat and porcine 20S proteasomes, T-L; design: method as in PMID 19054805; details: cited from earlier work
[6] = target: T1, human 20S proteasome, chymotrypsin-like (ChT-L) activity (Homo sapiens, UniProt P28074)
Protocol: as §1

20S proteasome = system: 20S proteasome; design: method as in PMID 10805568; details: ChT-L, T-L and C-L; cited from earlier work
[7] = target: T1, human 20S proteasome, chymotrypsin-like (ChT-L) activity; test: biochemical; details: for IC50: ChT-like Human 20S IC50, SDS-activated human 20S, [E] 2.7 nM, pH 8.1, 37°C, Suc-LLVY-AMC 52 µM
Protocol: as §1

[8] = target: yeast 20S proteasome, chymotrypsin-like (ChT-L) activity (Saccharomyces cerevisiae, UniProt P30656); test: ChT-L activity of SDS-activated yeast 20S proteasome (Suc-LLVY-AMC)
Protocol: as §2

[9] = ChT-like Yeast 20S IC50, SDS-activated yeast 20S, [E] 0.9 nM, pH 8.1, 37°C, 30 min incubation, Suc-LLVY-AMC 5.2 µM

IC50 [8]	Compound	IC50 [1]	Ki [7]	IC50 [7]	IC50 [3]	IC50 [8, 9]	other results
	bovine pancreatic trypsin inhibitor [BPTI]						effect on C-L activity at concentrations lower than 1 µM ([1]; SDS-activated human 20S): reduced the C-L activity significantly; maximal inhibition of C-L activity ([1]; SDS-activated human 20S, even at 12 µM, data not shown): ≤ 80%; IC50 [2]: 0.42 µM; Ki ([2]; competitive, read-out: inhibition constant Ki, ChT-L): 2 µM; reduction of T-L activity at around 40 µM ([3]; latent human 20S, around 40 µM): 60%; IC50 [4]: 0.53 µM; inhibition of porcine 20S C–L activity at 2 µM (porcine 20S C–L activity): 86%; IC50 [5]: 0.79 µM; inhibition of ChT-L activity at 4 µM ([6]; SDS-activated human 20S, 4 µM inhibitor): 60%; inhibition of the ChT-L site at ten-fold higher concentration ([6]; SDS-activated human 20S, ten-fold higher than 4 µM, data not shown): 80%
	C/C=C\NC(=O)[C@H]1NC(=O)[C@H](CC(N)=O)NC(=O)[C@@H](NC(=O)C(=O)[C@@H](C)CC)Cc2ccc(O)c(c2)-c2cccc3c2NC(=O)[C@@]3(O)[C@H]1O [TMC-95C]						times weaker than TMC-95A (20S proteasome): 20–150 times
1.07 µM	CC[C@H](C)[C@@H]1NC(=O)[C@@H]2CCCN2C(=O)[C@H](CCCCN)NC(=O)[C@H](CC(C)C)NC(=O)[C@H](CO)NC(=O)[C@H](CCCNC(=N)N)NC(=O)[C@H]([C@@H](C)O)NC(=O)[C@@H](NC(=O)[C@H](CCCNC(=N)N)NC(=O)CN)CSSC[C@@H](C(=O)N[C@@H](Cc2ccccc2)C(=O)N2CCC[C@H]2C(=O)N[C@@H](CC(=O)O)C(=O)O)NC1=O [Analogue III] (HELM PEPTIDE1{G.R.C.T.R.S.L.K.P.I.C.F.P.D}$PEPTIDE1,PEPTIDE1,3:R3-11:R3$$$V2.0)	2.42 µM	1.76 µM	3.36 µM	> 100 µM		
	CC[C@H](C)[C@@H]1NC(=O)[C@@H]2CCCN2C(=O)[C@@H]2CCCN2C(=O)[C@H]([C@@H](C)CC)NC(=O)[C@H](CO)NC(=O)[C@H](CCCCN)NC(=O)[C@H]([C@@H](C)O)NC(=O)[C@@H](NC(=O)[C@H](CCCNC(=N)N)NC(=O)CN)CSSC[C@@H](C(=O)N[C@@H](Cc2ccccc2)C(=O)N2CCC[C@H]2C(=O)N[C@@H](CC(=O)O)C(=O)O)NC1=O [Analogue I]	58.2 µM	27 µM	51.6 µM	> 100 µM	52 µM	
	C/C=C\NC(=O)[C@H]1NC(=O)[C@H](CC(N)=O)NC(=O)[C@@H](NC(=O)C(=O)[C@H](C)CC)Cc2ccc(O)c(c2)-c2cccc3c2NC(=O)[C@@]3(O)[C@H]1O [TMC-95D]						times weaker than TMC-95A (20S proteasome): 20–150 times
	CC[C@H](C)[C@@H]1NC(=O)[C@@H]2CCCN2C(=O)[C@H](CCCCN)NC(=O)[C@H](CC(C)C)NC(=O)[C@H](CO)NC(=O)[C@H](CCCCN)NC(=O)[C@H]([C@@H](C)O)NC(=O)[C@@H](NC(=O)[C@H](CCCNC(=N)N)NC(=O)CN)CSSC[C@@H](C(=O)N[C@@H](Cc2ccccc2)C(=O)N2CCC[C@H]2C(=O)N[C@@H](CC(=O)O)C(=O)O)NC1=O [Analogue II] (HELM PEPTIDE1{G.R.C.T.K.S.L.K.P.I.C.F.P.D}$PEPTIDE1,PEPTIDE1,3:R3-11:R3$$$V2.0)	6.74 µM	1.23 µM	2.66 µM	> 100 µM	2.15 µM	
1.23 µM	CC[C@H](C)[C@@H]1NC(=O)[C@@H]2CCCN2C(=O)[C@H](CCCCN)NC(=O)[C@H](CCCCN)NC(=O)[C@H](CO)NC(=O)[C@H](CCCNC(=N)N)NC(=O)[C@H]([C@@H](C)O)NC(=O)[C@@H](NC(=O)[C@H](CCCNC(=N)N)NC(=O)CN)CSSC[C@@H](C(=O)N[C@@H](Cc2ccccc2)C(=O)N2CCC[C@H]2C(=O)N[C@@H](CC(=O)O)C(=O)O)NC1=O [Analogue V] (HELM PEPTIDE1{G.R.C.T.R.S.K.K.P.I.C.F.P.D}$PEPTIDE1,PEPTIDE1,3:R3-11:R3$$$V2.0)	0.6 µM and 0.61 µM	0.31 µM	0.9 µM and 0.94 µM	72.2 µM		Kd [7]: 1 µM; times lower Ka than Z-LLL-CHO ([6]; human 20S ChT-L): about 6.5 times
8.82 µM	CC[C@H](C)[C@@H]1NC(=O)[C@@H]2CCCN2C(=O)[C@H](CCCCN)NC(=O)[C@H](CCCCN)NC(=O)[C@H](CO)NC(=O)[C@H](C)NC(=O)[C@H]([C@@H](C)O)NC(=O)[C@@H](NC(=O)[C@H](CCCNC(=N)N)NC(=O)CN)CSSC[C@@H](C(=O)N[C@@H](Cc2ccccc2)C(=O)N2CCC[C@H]2C(=O)N[C@@H](CC(=O)O)C(=O)O)NC1=O [Analogue VIII] (HELM PEPTIDE1{G.R.C.T.A.S.K.K.P.I.C.F.P.D}$PEPTIDE1,PEPTIDE1,3:R3-11:R3$$$V2.0)	5.37 µM	2.99 µM	5.8 µM	> 100 µM		
	CC[C@H](C)[C@@H]1NC(=O)[C@@H]2CCCN2C(=O)[C@H]([C@@H](C)CC)NC(=O)[C@H](CCCNC(=N)N)NC(=O)[C@H](CO)NC(=O)[C@H](CCCCN)NC(=O)[C@H]([C@@H](C)O)NC(=O)[C@@H](NC(=O)[C@H](CCCNC(=N)N)NC(=O)CN)CSSC[C@@H](C(=O)N[C@@H](Cc2ccccc2)C(=O)N2CCC[C@H]2C(=O)N[C@@H](CC(=O)O)C(=O)O)NC1=O [Analogue IV] (HELM PEPTIDE1{G.R.C.T.K.S.R.I.P.I.C.F.P.D}$PEPTIDE1,PEPTIDE1,3:R3-11:R3$$$V2.0)	2.44 µM	1.31 µM	2.49 µM	60.5 µM	5.36 µM	
6.6 µM	CC[C@H](C)[C@@H]1NC(=O)[C@@H]2CCCN2C(=O)[C@H](CCCCN)NC(=O)[C@H](CCCCN)NC(=O)[C@H](CO)NC(=O)[C@H](Cc2ccc(O)cc2)NC(=O)[C@H]([C@@H](C)O)NC(=O)[C@@H](NC(=O)[C@H](CCCNC(=N)N)NC(=O)CN)CSSC[C@@H](C(=O)N[C@@H](Cc2ccccc2)C(=O)N2CCC[C@H]2C(=O)N[C@@H](CC(=O)O)C(=O)O)NC1=O [Analogue VI] (HELM PEPTIDE1{G.R.C.T.Y.S.K.K.P.I.C.F.P.D}$PEPTIDE1,PEPTIDE1,3:R3-11:R3$$$V2.0)	4.02 µM	1.43 µM		93.1 µM		
	CC[C@H](C)[C@H](NC(=O)[C@H]([C@@H](C)CC)N(C)C(C)=O)C(=O)N[C@H](C(=O)N[C@@H](CC(C)C)C(=O)[C@@]1(C)CO1)[C@@H](C)O [epoxomicin]						IC50 [2]: 0.14 µM; IC50 [4]: 3.6 µM; IC50 [5]: 0.32 µM
	C/C=C\NC(=O)[C@H]1NC(=O)[C@H](CC(N)=O)NC(=O)[C@@H](NC(=O)C(=O)[C@H](C)CC)Cc2ccc(O)c(c2)-c2cccc3c2NC(=O)[C@@]3(O)[C@@H]1O [TMC-95B]						reduction of 20S activities compared with TMC-95A (20S proteasome): to the same extent as TMC-95A
	CC[C@H](C)[C@@H]1NC(=O)[C@@H]2CCCN2C(=O)[C@H](CCCCN)NC(=O)[C@H](CCCCN)NC(=O)[C@H](CO)NC(=O)[C@H](CCCCN)NC(=O)[C@H]([C@@H](C)O)NC(=O)[C@@H](NC(=O)[C@H](CCCNC(=N)N)NC(=O)CN)CSSC[C@@H](C(=O)N[C@@H](Cc2ccccc2)C(=O)N2CCC[C@H]2C(=O)N[C@@H](CC(=O)O)C(=O)O)NC1=O [Analogue X] (HELM PEPTIDE1{G.R.C.T.K.S.K.K.P.I.C.F.P.D}$PEPTIDE1,PEPTIDE1,3:R3-11:R3$$$V2.0)	1.12 µM	0.66 µM	~1.28 µM and 1.28 µM	86.7 µM	~16.7 µM and 16.7 µM	
	CC[C@H](C)[C@@H]1NC(=O)[C@@H]2CCCN2C(=O)[C@H](C)NC(=O)[C@H](C)NC(=O)[C@H](CO)NC(=O)[C@H](CCCCN)NC(=O)[C@H]([C@@H](C)O)NC(=O)[C@@H](NC(=O)[C@H](CCCNC(=N)N)NC(=O)CN)CSSC[C@@H](C(=O)N[C@@H](Cc2ccccc2)C(=O)N2CCC[C@H]2C(=O)N[C@@H](CC(=O)O)C(=O)O)NC1=O [Analogue IX] (HELM PEPTIDE1{G.R.C.T.K.S.A.A.P.I.C.F.P.D}$PEPTIDE1,PEPTIDE1,3:R3-11:R3$$$V2.0)	> 100 µM		> 100 µM	62.1 µM	> 100 µM	remaining activity at 100 µM ([8]; read-out: ChT-L activity remaining at about 100 µM): ≥ 70%

Compound	IC50 [8]	IC50 [1]	Ki [7]	IC50 [7]	IC50 [3]	IC50 [8, 9]	other results
CC[C@H](C)[C@@H]1NC(=O)[C@@H]2CCCN2C(=O)[C@H](CCCCN)NC(=O)[C@H](CCCCN)NC(=O)[C@H](CO)NC(=O)[C@H](Cc2ccccc2)NC(=O)[C@H]([C@@H](C)O)NC(=O)[C@@H](NC(=O)[C@H](CCCNC(=N)N)NC(=O)CN)CSSC[C@@H](C(=O)N[C@@H](Cc2ccccc2)C(=O)N2CCC[C@H]2C(=O)N[C@@H](CC(=O)O)C(=O)O)NC1=O [Analogue VII] (HELM PEPTIDE1{G.R.C.T.F.S.K.K.P.I.C.F.P.D}$PEPTIDE1,PEPTIDE1,3:R3-11:R3$$$V2.0)	5.34 µM	2.8 µM	1.75 µM	3.41 µM	45.3 µM		
CC(C)C[C@@H](C=O)NC(=O)[C@H](CC(C)C)NC(=O)[C@H](CC(C)C)NC(=O)OCc1ccccc1 [Z-LLL-CHO, reference compound] (Cbz-Leu-Leu-Leu-aldehyde)	0.26 µM	5.62 µM			48.2 µM		IC50 [2]: 0.78 µM; IC50 [4]: 1.7 µM; IC50 [5]: 2.3 µM; inhibition of ChT-L activity at 4 µM [6]: completely abolished; ChT-like Human 20S Ka×10^5 ([6]; pH 8.1): 65.4
